According to patent US11480576B2, “Conjugated oligomer-based macrocycles for live cell imaging” (THE FLORIDA INTERNATIONAL UNIVERSITY BOARD OF TRUSTEES, priority 2019, dated 2022):

Assay: Photophysical properties of PEMCs (UV-vis absorption, fluorescence, QY)
Assay type: physicochemical
Description: Chemicals, including solvents, were purchased from Fisher Scientific and used as received. Deuterated solvents were purchased from Cambridge Isotope Laboratories (Cambridge, Mass.). All chemicals and solvents were purchased and used without further purification. Nuclear magnetic resonance (NMR) spectra were recorded on a 400 MHz Avance Bruker NMR spectrometer. ^1H and ^13C NMR chemical shifts are given in ppm relative to Si(CH3)4. The mass spectrometric data were conducted on a Bruker Solarix FT-ICRMS. Data for crystal structure was obtained on a Bruker D8 Quest CMOS diffractometer. The crystal was kept at T=296(2) K during data collection. Using APEX3, the structure was solved with the ShelXT 2014/5 structure solution program, using the intrinsic phasing method. The model was refined with version 2016/6 of ShelXL using full matrix least squares on F^2 minimization, using the Olex2 GUI. Analytical thin layer chromatography (TLC) was performed on TLC Silica gel 60 F254. […] UV-vis spectra were recorded on a Varian Cary 50 Bio spectrophotometer. Fluorescence spectra were obtained using a FluoroLog-3 Spectrofluorometer (Jobin Yvon/Horiba). 9,10-diphenylanthracene (QY=1.0) in cyclohexane was used as a fluorescence standard for QY determination. Fourier transform infrared (FTIR) spectra were recorded on a PerkinElmer Spectrum 100 FTIR Spectrometer. […]

- Extinction coefficient (ε): 62700 M⁻¹ cm⁻¹
- Quantum Yield (QY) (9,10-Diphenylanthracene (QY = 1.0) in cyclohexane as fluorescence standard): 31%
SMILES: COc1cc(C#Cc2ccc(C=O)cc2)c(OC)cc1C#Cc1ccc(C=O)cc1 [1a, 4,4′-((2,5-dimethoxy-1,4-phenylene)bis(ethyne-2,1-diyl))dibenzaldehyde]
